# Data as given in ChEMBL document CHEMBL1124815, “Novel piperidine derivatives. Synthesis and anti-acetylcholinesterase activity of 1-benzyl-4-[2-(N-benzoylamino)ethyl]piperidine derivatives” (J Med Chem, 1990).
# Columns and labels:
# Acetylcholinesterase = biological target: T1, Acetylcholinesterase (Mus musculus, UniProt P21836); experiment: Inhibitory activity against mouse brain Acetylcholinesterase
# T1 sequence (P21836 whole entry): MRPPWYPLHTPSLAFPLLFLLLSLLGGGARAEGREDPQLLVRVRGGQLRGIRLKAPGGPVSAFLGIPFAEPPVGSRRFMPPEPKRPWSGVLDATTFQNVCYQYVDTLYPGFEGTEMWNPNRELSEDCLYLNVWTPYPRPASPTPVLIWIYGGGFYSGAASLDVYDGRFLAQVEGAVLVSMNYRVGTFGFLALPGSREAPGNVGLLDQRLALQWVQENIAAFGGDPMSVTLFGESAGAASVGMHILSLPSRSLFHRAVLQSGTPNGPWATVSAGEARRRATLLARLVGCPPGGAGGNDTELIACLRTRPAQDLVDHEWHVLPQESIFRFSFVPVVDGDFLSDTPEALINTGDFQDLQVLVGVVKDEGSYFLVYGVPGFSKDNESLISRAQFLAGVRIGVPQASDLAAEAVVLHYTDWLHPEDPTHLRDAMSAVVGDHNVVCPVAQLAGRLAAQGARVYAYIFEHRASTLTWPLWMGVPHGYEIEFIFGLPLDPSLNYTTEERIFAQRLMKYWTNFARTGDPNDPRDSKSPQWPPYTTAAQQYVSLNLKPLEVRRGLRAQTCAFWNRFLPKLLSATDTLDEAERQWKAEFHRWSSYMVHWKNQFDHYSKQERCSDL
# [1] = biological target: T2, Acetylcholinesterase (Mus musculus) (UniProt P21836); experiment: Reversibility of Acetylcholinesterase enzyme inhibition by compound (91 uM) after dialysis
# T2 sequence (whole entry): T1 sequence (P21836 whole entry)
# [2] = biological target: T2, Acetylcholinesterase (Mus musculus); experiment: Reversibility of Acetylcholinesterase enzyme inhibition by compound (0.27 uM) after dialysis
# [3] = biological target: T2, Acetylcholinesterase (Mus musculus); experiment: Reversibility of Acetylcholinesterase enzyme inhibition by compound (0.91 uM) after dialysis
# [4] = biological target: T2, Acetylcholinesterase (Mus musculus); experiment: Reversibility of Acetylcholinesterase enzyme inhibition by compound (0.27 uM) before dialysis
# [5] = biological target: T2, Acetylcholinesterase (Mus musculus); experiment: Reversibility of Acetylcholinesterase enzyme inhibition by compound (91 uM) before dialysis
# [6] = biological target: T2, Acetylcholinesterase (Mus musculus); experiment: Reversibility of Acetylcholinesterase enzyme inhibition by compound (0.91 uM) before dialysis
# Butyrylcholinesterase = Butyrylcholinesterase (Rattus norvegicus, UniProt Q9JKC1); experiment: Inhibitory activity against rat butyrylcholinesterase enzyme (BuChE)
# Sequence of Butyrylcholinesterase (Q9JKC1 whole entry): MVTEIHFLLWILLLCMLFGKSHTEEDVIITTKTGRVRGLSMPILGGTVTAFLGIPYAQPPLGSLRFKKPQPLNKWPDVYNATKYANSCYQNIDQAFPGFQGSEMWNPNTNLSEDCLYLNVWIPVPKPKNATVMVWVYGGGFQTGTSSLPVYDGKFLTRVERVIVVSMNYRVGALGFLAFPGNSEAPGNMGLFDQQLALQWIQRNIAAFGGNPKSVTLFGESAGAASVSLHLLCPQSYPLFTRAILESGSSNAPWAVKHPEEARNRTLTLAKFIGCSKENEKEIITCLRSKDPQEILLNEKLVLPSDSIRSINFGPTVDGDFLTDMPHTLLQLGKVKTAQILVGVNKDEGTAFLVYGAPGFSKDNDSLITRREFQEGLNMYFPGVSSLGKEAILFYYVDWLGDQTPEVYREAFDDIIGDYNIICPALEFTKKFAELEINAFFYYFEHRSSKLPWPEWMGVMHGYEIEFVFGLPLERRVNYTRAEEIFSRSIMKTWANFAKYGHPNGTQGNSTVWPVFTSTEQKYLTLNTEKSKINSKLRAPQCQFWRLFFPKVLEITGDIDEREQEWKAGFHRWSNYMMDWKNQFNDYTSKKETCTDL
SMILES,IC50 (Acetylcholinesterase),also measured
O=C(NCCC1CCN(Cc2ccccc2)CC1)c1ccccc1[N+](=O)[O-],880 nM,–
Cc1cccc(C(=O)NCCC2CCN(Cc3ccccc3)CC2)c1,470 nM,–
O=C(CCCC1CCN(Cc2ccccc2)CC1)c1ccccc1,530 nM,–
O=C(NCCC1CCN(Cc2ccccc2)CC1)c1ccc(F)cc1,85 nM,–
CC(=O)c1ccc(C(=O)NCCC2CCN(Cc3ccccc3)CC2)cc1,51 nM,–
O=C(NCCC1CCN(Cc2ccccc2)CC1)c1cc[n+]([O-])cc1,155 nM,–
O=C(NCCC1CCN(Cc2ccccc2)CC1)C1CCCCC1,1600 nM,–
CCN(CCC1CCN(Cc2ccccc2)CC1)C(=O)c1ccc(S(=O)(=O)Cc2ccccc2)cc1,0.3 nM,–
O=C(NCCC1CCN(Cc2ccccc2)CC1)c1ccc(Cl)cc1,180 nM,–
O=C(NCCC1CCN(Cc2ccccc2)CC1)c1cccnc1,69 nM,–
O=C(NCCC1CCN(Cc2ccccc2)CC1)c1ccc(S(=O)(=O)Cc2ccccc2)cc1,29 nM,–
O=C(c1ccccc1)N(CCC1CCN(Cc2ccccc2)CC1)Cc1ccccc1,940 nM,–
Cc1ccc(C(=O)NCCC2CCN(Cc3ccccc3)CC2)cc1,180 nM,–
c1ccc(CNCCC2CCN(Cc3ccccc3)CC2)cc1,46000 nM,–
CN(CCC1CCN(Cc2ccccc2)CC1)C(=O)c1ccc(S(=O)(=O)Cc2ccccc2)cc1,–,Reversibility [1]: 16.5; Reversibility [2]: 17.7; Reversibility [3]: 17.8; Reversibility [4]: 9.1; Reversibility [5]: 2.59; Reversibility [6]: 5.42; IC50 (Butyrylcholinesterase): 10100 nM
O=C(NCCC1CCN(Cc2ccccc2)CC1)c1ccncc1,39 nM,–
O=C(NCCC1CCN(Cc2ccccc2)CC1)c1cccc([N+](=O)[O-])c1,230 nM,–
Cc1ccccc1C(=O)NCCC1CCN(Cc2ccccc2)CC1,1000 nM,–
O=C(NCCC1CCN(Cc2ccccc2)CC1)c1ccccn1,800 nM,–
O=C(c1ccc(S(=O)(=O)Cc2ccccc2)cc1)N(CCC1CCN(Cc2ccccc2)CC1)c1ccccc1,0.6 nM,–
O=C(c1ccccc1)N(CCC1CCN(Cc2ccccc2)CC1)c1ccccc1,35 nM,–
O=Cc1ccc(C(=O)NCCC2CCN(Cc3ccccc3)CC2)cc1,120 nM,–
COc1ccc(C(=O)NCCC2CCN(Cc3ccccc3)CC2)cc1,88 nM,–
CCN(CCC1CCN(Cc2ccccc2)CC1)C(=O)c1ccccc1,130 nM,–
